Measured values: patent publication US6498150B2, “Low molecular weight cell, bone marrow and immune stimulants” (priority 1995, dated 2002)
“And” between values parts separate entries of the source, which are not always exact repeats. Equal values may be shown once. Read-outs that look alike come from different tables or passages of the source. Marks after values point to notes of the source that are not given here.

Legend:
CD34+ cells = experiment: Blood cell stimulation: CD34+ progenitor suspension culture, lineage marker ELISA; assay type: cell-based, human; conditions: for neutrophils, Percent difference (relative to control): CD15; for red blood cells, Percent difference (relative to control): glycophorin A
anti-Pn14 antibodies = test system: anti-Pn14 antibodies; design: species or system BALB/c female mice; conditions: mouse, in vivo
[1] = test system: CHO cells containing a cloned gene for tissue plasminogen activator (tPA); experiment: Stimulation of tPA production from CHO cells (IMUBIND total tPA ELISA); assay type: cell-based; conditions: for Culture Cell Density / Supernatant Concentration (tPA) / Supernatant Concentration relative to control / tPA per cell / tPA per cell relative to control / ELISA Optical Density: 1 pg/ml; for Culture Cell Density: cell numbers per milliliter, trypan-blue, hemacytometer; for Supernatant Concentration (tPA): from standard curve; for ELISA Optical Density: supernatant at end of log phase
[2] = test system: delayed type hypersensitivity (DTH); assay type: in vivo, mice
[3] = test system: Hybridoma cells (ATCC #CRL-8014, OKT-8); experiment: Production of monoclonal antibodies from hybridomas (sandwich ELISA); assay type: cell-based; conditions: 200 pg/ml
[4] = Study 1: 1 ng/ml compound, 2000 cells per well, 10 days, CD14
[5] = Study 1: 1 ng/ml compound, 2000 cells per well, 10 days
[6] = Study 2: 1 ug/ml, 1700 cells per well

N-carboxybenzoxy-β-alanyl aminoethylphosphonic acid [Taurox-BP]
monocytes, Percent difference (relative to control) (CD34+ cells; [4]): 18%
neutrophils, Percent difference (relative to control) (CD34+ cells; [5]): 14%
red blood cells, Percent difference (relative to control) (CD34+ cells; [5]): 1%
CD34 cells, Percent difference (relative to control) (CD34+ cells; [6]): 0%
RBC, Percent difference (relative to control) (CD34+ cells; [6]): 4%
monocytes, Percent difference (relative to control) (CD34+ cells; [6]): 2%
Mean Change in O.D. from pre-boost, 10 days after boost with UNCONJUGATED polysaccharide (anti-Pn14 antibodies): 187
Mean Change in O.D. from pretest, Day 4 after injection with antigen (anti-Pn14 antibodies): 3.3
Mean Change in O.D. from pretest, Day 14 after injection with antigen (anti-Pn14 antibodies): 924

O=C(CCNC(=O)OCc1ccccc1)NCCOP(=O)(O)O [Taurox-BOP, N-carboxybenzoxy-β-alanyl-ethanolamine phosphate]
monocytes, Percent difference (relative to control) (CD34+ cells; [4]): 18%
neutrophils, Percent difference (relative to control) (CD34+ cells; [5]): 21%
red blood cells, Percent difference (relative to control) (CD34+ cells; [5]): 0%
CD34 cells, Percent difference (relative to control) (CD34+ cells; [6]): 33%
RBC, Percent difference (relative to control) (CD34+ cells; [6]): 55%
monocytes, Percent difference (relative to control) (CD34+ cells; [6]): 9%
Mean Change in O.D. from pretest, Day 4 after injection with antigen (anti-Pn14 antibodies): 0
Mean Change in O.D. from pretest, Day 14 after injection with antigen (anti-Pn14 antibodies): 366
Mean Change in O.D. from pretest, Day 14 after injection with antigen (anti-Pn14 antibodies; ip): 877 and 515

O=C(CCNC(=O)OCc1ccccc1)NCCS(=O)(=O)O [Taurox-SB, N-carboxybenzoxy-β-alanyl-taurine]
Culture Cell Density ([1]; listed as #1): 4.0 × 10^5
Culture Cell Density ([1]; listed as #2): 4.8 × 10^5
Culture Cell Density ([1]; listed as #3): 5.2 × 10^5
Supernatant Concentration (tPA) ([1]; listed as #1): 1,492.8 nanograms/ml
Supernatant Concentration (tPA) ([1]; listed as #2): 1,389.4 nanograms/ml
Supernatant Concentration (tPA) ([1]; listed as #3): 2,113.0 nanograms/ml
Supernatant Concentration relative to control ([1]; listed as #1): [3.5 × control]
tPA per cell ([1]; listed as #1): 3.73 Picograrns
tPA per cell relative to control ([1]; listed as #1): [1.9 × control]
Supernatant Concentration relative to control ([1]; listed as #2): [3.3 × control]
tPA per cell ([1]; listed as #2): 2.89 Picograrns
Supernatant Concentration relative to control ([1]; listed as #3): [5.0 × control]
tPA per cell ([1]; listed as #3): 4.06 Picograrns
tPA per cell relative to control ([1]; listed as #3): [2.1 × control]
ELISA Optical Density ([1]; listed as #1): 0.332
ELISA Optical Density ([1]; listed as #2): 0.317
ELISA Optical Density ([1]; listed as #3): 0.422
alteration of per-cell production of tPA ([1]; Table 2): about 2 fold
monocytes, Percent difference (relative to control) (CD34+ cells; [4]): 15%
neutrophils, Percent difference (relative to control) (CD34+ cells; [5]): 0%
red blood cells, Percent difference (relative to control) (CD34+ cells; [5]): 0%
Mean Change in O.D. from pre-boost, 10 days after boost with UNCONJUGATED polysaccharide (anti-Pn14 antibodies): 139
Mean Change in O.D. from pretest, Day 4 after injection with antigen (anti-Pn14 antibodies): 1.1
Mean Change in O.D. from pretest, Day 14 after injection with antigen (anti-Pn14 antibodies): 697
Mean Change in O.D. from pretest, Day 4 after injection with antigen (anti-Pn14 antibodies; ip): 6.2 and 3.9
Mean Change in O.D. from pretest, Day 14 after injection with antigen (anti-Pn14 antibodies; ip): 705 and 483
moderate responders compared with saline injected group ([2]; 24 hrs): more moderate responders than the saline injected group
Percent of Animals with Major DTH at 24 hrs ([2]; mouse, in vivo): 50* Percent
Percent of Animals with Major DTH at 48 hrs. ([2]; mouse, in vivo): 50%
Percent of Animals with Major DTH at either 24 or 48 hrs. ([2]; mouse, in vivo): 60%
Percent of Animals with Moderate DTH at 24 hrs ([2]; mouse, in vivo): 70%
moderate response rate at 24 hrs ([2]; mouse, in vivo): eight of ten
total treated animals with major immune response at 24 hours ([2]; mouse, in vivo): 14 animals
treated animals with major response at either 24 or 48 hours post challenge ([2]; mouse, in vivo): 21 animals
Percent of Animals with Major DTH at 24 hrs ([2]; mouse, in vivo, iv): 20% and 10%
Percent of Animals with Major DTH at 48 hrs. ([2]; mouse, in vivo, iv): 20% and 10%
Percent of Animals with Moderate DTH at 24 hrs ([2]; mouse, in vivo, iv): 70% and 60% and 50% and 80* Percent and 40%
Increase of 1 gG, μg/ml over 0-control [3]: 316%
Increase of IgG, pg/cell over 0-control [3]: 93%
IgG, pg/cell ([3]; protein-free media): 80.6 pg/cell
1 gG ([3]; protein-free media, Mab in culture aliquots): 50 µg/mL

NCCC(=O)NCCS(=O)(=O)O [Taurox-S, β-alanyl-taurine]
monocytes, Percent difference (relative to control) (CD34+ cells; [4]): 47%
neutrophils, Percent difference (relative to control) (CD34+ cells; [5]): 55%
red blood cells, Percent difference (relative to control) (CD34+ cells; [5]): 50%
Mean Change in O.D. from pre-boost, 10 days after boost with UNCONJUGATED polysaccharide (anti-Pn14 antibodies): 204
Mean Change in O.D. from pretest, Day 4 after injection with antigen (anti-Pn14 antibodies): 2.9
Mean Change in O.D. from pretest, Day 14 after injection with antigen (anti-Pn14 antibodies): 697
Mean Change in O.D. from pretest, Day 14 after injection with antigen (anti-Pn14 antibodies; ip): 681 and 671
